Activity calls are given as the source filed them.
Experiments:
[1] = tested on: HEK293; test: cells; type: functional, cell-based; conditions: Homo sapiens
[2] = biological target: T1, Nuclear receptor subfamily 0 group B member 1 (Homo sapiens, UniProt P51843); test: Luminescence-based cell-based high throughput dose response assay for inhibitors of the orphan nuclear receptor subfamily 0, group B, member 1 (DAX1; NR0B1). [Related pubchem assays (depositor defined):AID504766, AID504790]; type: functional
T1 sequence (P51843 whole entry): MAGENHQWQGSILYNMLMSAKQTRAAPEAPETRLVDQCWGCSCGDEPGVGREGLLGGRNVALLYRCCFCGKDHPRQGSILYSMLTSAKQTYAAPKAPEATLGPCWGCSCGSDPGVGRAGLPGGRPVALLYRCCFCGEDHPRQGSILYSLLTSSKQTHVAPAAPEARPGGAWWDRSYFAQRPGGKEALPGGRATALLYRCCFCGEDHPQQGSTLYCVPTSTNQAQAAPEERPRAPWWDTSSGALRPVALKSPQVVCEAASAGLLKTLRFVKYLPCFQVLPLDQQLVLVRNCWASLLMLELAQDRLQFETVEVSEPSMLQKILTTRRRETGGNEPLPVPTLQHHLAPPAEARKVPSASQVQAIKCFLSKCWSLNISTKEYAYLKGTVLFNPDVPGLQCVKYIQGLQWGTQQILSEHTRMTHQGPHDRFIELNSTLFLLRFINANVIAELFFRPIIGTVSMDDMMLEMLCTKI

[3] = cells
[4] = viability of uninfected HEp-2 cells – cell-based, HTS, cytotoxicity control for RSV inhibitor project, dose response (AID 2410); type: functional; conditions: human respiratory syncytial virus
[5] = biological target: T2, Zinc finger protein mex-5 (Caenorhabditis elegans, UniProt Q9XUB2); test: potency of MEX-5 RNA-binding blockers – biochemical, C. elegans, fluorescence polarization, dose response (AID 1960)
T2 sequence (Q9XUB2 whole entry): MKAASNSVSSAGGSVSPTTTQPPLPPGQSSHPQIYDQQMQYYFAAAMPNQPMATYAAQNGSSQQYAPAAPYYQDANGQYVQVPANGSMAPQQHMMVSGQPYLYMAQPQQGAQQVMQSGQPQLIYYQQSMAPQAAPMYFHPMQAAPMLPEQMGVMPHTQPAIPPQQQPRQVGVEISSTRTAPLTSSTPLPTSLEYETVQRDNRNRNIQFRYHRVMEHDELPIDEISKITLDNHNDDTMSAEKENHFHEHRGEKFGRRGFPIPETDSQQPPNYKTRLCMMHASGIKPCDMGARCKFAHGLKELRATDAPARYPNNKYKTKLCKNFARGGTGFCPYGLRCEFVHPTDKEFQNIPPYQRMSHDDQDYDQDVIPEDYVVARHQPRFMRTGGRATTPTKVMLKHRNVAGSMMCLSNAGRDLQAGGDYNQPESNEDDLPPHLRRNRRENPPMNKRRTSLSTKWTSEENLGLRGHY

[6] = biological target: T3, RNA-binding protein pos-1 (Caenorhabditis elegans, UniProt G5EF15); test: disruptors of C. elegans POS-1 RNA interaction – biochemical, fluorescence polarization, dose response (AID 1964);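 further: purified POS-1 fused to maltose binding protein made in E. coli; potency of compounds blocking POS-1 binding to fluorescent RNA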
T3 sequence (G5EF15 whole entry): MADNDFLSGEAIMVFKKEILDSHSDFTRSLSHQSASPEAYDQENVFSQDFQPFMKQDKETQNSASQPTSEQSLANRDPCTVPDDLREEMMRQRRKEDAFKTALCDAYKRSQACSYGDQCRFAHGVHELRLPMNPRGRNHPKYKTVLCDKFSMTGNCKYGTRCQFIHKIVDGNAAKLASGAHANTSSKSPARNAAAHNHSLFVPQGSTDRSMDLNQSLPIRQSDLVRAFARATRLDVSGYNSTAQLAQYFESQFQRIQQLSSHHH

[7] = biological target: G-protein coupled receptor 55 (Homo sapiens, UniProt Q9Y2T6); test: inhibition of LPI-stimulated GPR55 beta-arrestin translocation – imaging, U2OS, beta-arrestin-GFP, LPI agonist, primary screen (AID 2013); type: functional;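 further: antagonist potency measured as reduced agonist-driven arrestin aggregation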
[8] = biological target: Voltage-dependent T-type calcium channel subunit alpha-1H (Homo sapiens, UniProt O95180); type: functional;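 further: channel activity triggered by adding a high calcium stimulation buffer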
[9] = Luminescence-based counterscreen assay for KLF5 inhibitors: dose response cell-based high throughput screening assay to identify cytotoxic compounds using the IEC-6 intestinal epithelial cell line. [Related pubchem assays: 1700 (Primary screen.), 1834 (Confirmation screen.), 1858 (Summary AID.), 1905 (Counterscreen.)]; type: functional
[10] = cells; type: functional, cell-based
[11] = biological target: Protein Wnt-3a (Mus musculus, UniProt P27467); test: antagonism of Wnt3a pathway luciferase reporter – Wnt-LIGHT cells, luminescence, selectivity assay for Gli-SUFU antagonist project, dose response (AID 651570); type: functional; conditions: read-out: IC50_Mean;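 further: Wnt-LIGHT reporter cells stimulated with conditioned medium from Wnt3a-producing cells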
[12] = cells; type: functional, cell-based; remark: listed apart in the source
[13] = tested on: INS1; test: INS-1E survival protection against cytokine death – cell-based, luminescence, retest, dose response (AID 449756); type: functional; conditions: Rattus norvegicus;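 further: cell death triggered by IL-1 beta plus TNF-alpha plus IFN-gamma mixture; protective hits raise ATP signal compared with cytokine alone wells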
[14] = MIN6 cell viability loss – mouse insulinoma, cytotoxicity control, dose response (AID 2122); type: functional;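 further: confirmatory high-throughput counterscreen run to flag cytotoxic compounds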
[15] = decrease of insulin promoter-GFP reporter – imaging, high-content screening, mouse beta cells (AID 1628); type: functional; conditions: MIN6
[16] = Trypanosoma cruzi growth suppression in host cells – NIH3T3 host cells, beta-gal luminescence, confirmation (AID 2044); type: functional, cell-based;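 further: intracellular parasites grown in NIH/3T3 mouse fibroblasts as host cells; luminescent beta-galactosidase reporter signal from transgenic T. cruzi replicating inside host cells; inhibitors lower the luminescence signal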
[17] = NIH3T3 cell viability loss – ATP luminescence, mouse fibroblasts, counter-screen, dose response (AID 2010); type: functional, cell-based;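 further: cells exposed to compound for about 90 hours before reading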
[18] = tested on: Vero; test: viability of Vero cells under compound – cytotoxicity control for flavivirus capping enzyme inhibitors (AID 588742); type: functional; conditions: Chlorocebus sabaeus
[19] = tested on: Vero; test: cells; type: functional, cell-based; conditions: Chlorocebus sabaeus
[20] = tested on: Vero; test: cells; type: functional; conditions: Chlorocebus sabaeus
[21] = HEK-293T viability loss after treatment – luminescence, T-cell screen hits, cytotoxicity control for TCR NF-kB inhibitor project, dose response (AID 489026); type: functional, cell-based;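 further: cells exposed to compound about 14 hours before the viability readout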
[22] = biological target: T4, Estrogen receptor beta (Homo sapiens, UniProt Q92731);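 further: recombinant ER-beta bound to coactivator SRC1 peptide in presence of estradiol agonist; inhibitors block coactivator peptide binding and lower the FRET signal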
[23] = biological target: T5, Estrogen receptor (Homo sapiens, UniProt P03372);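 further: potency for inhibiting coactivator peptide recruitment to the receptor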
T5 sequence (P03372 whole entry): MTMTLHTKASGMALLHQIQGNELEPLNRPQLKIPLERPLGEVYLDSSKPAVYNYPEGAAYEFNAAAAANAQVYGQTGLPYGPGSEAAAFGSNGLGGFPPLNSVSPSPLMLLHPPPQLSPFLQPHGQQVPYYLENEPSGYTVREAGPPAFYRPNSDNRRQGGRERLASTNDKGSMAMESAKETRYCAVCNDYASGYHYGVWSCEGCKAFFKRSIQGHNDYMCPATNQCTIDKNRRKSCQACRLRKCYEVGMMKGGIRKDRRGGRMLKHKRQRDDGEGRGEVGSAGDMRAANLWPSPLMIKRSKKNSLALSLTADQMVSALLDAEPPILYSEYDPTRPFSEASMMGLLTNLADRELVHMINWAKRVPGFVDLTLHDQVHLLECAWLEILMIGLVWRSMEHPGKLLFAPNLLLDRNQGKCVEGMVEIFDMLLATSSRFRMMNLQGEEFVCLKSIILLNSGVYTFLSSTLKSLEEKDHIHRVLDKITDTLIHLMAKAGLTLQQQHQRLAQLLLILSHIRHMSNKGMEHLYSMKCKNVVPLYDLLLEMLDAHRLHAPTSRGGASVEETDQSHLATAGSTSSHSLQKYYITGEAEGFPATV

[24] = biological target: T4, Estrogen receptor beta; test: blockers of SRC-3 recruitment to ERβ – biochemical, ELISA, streptavidin-HRP readout, orthogonal assay, confirmation (AID 1060)
[25] = tested on: Streptococcus sp. 'group A'; test: Streptococcus pyogenes SK(-)GAS viability under kanamycin – luminescence, BacTiterGlo, confirmation, counter-screen for streptokinase expression inhibitor project, dose response (AID 1900); type: functional, organism-based
[26] = fluconazole-exposed Candida albicans growth modulators – fluorescence, retest, confirmation (AID 2467); type: functional, cell-based
[27] = tested on: Streptococcus; test: GAS UMAA2166 growth inhibition – luminescence, BacTiterGlo, counter-screen for streptokinase expression inhibitor project, dose response (AID 1915); type: functional, organism-based;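 further: potency for reduction of bacterial viability or growth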
[28] = NIH-3T3 fibroblast cytotoxicity, dose response, cytotoxicity control, cell-based, fluorescence, Alamar Blue, secondary assay (AID 2327); type: functional;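 further: NIH-3T3 mouse fibroblasts cultured with fluconazole at 8 µg/mL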
[29] = biological target: T6, Probable nicotinate-nucleotide adenylyltransferase (Staphylococcus aureus (strain N315), UniProt P65502); type: functional, Staphylococcus aureus subsp. aureus N315;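 on IC50 Mean: confirmatory dose-response retesting of NadD inhibitor hits first found in an ultra-high-throughput screen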
[30] = biological target: T6, Probable nicotinate-nucleotide adenylyltransferase; type: functional, Staphylococcus aureus subsp. aureus N315; conditions: read-out: IC50_Mean

Sequence of Voltage-dependent T-type calcium channel subunit alpha-1H (O95180 whole entry): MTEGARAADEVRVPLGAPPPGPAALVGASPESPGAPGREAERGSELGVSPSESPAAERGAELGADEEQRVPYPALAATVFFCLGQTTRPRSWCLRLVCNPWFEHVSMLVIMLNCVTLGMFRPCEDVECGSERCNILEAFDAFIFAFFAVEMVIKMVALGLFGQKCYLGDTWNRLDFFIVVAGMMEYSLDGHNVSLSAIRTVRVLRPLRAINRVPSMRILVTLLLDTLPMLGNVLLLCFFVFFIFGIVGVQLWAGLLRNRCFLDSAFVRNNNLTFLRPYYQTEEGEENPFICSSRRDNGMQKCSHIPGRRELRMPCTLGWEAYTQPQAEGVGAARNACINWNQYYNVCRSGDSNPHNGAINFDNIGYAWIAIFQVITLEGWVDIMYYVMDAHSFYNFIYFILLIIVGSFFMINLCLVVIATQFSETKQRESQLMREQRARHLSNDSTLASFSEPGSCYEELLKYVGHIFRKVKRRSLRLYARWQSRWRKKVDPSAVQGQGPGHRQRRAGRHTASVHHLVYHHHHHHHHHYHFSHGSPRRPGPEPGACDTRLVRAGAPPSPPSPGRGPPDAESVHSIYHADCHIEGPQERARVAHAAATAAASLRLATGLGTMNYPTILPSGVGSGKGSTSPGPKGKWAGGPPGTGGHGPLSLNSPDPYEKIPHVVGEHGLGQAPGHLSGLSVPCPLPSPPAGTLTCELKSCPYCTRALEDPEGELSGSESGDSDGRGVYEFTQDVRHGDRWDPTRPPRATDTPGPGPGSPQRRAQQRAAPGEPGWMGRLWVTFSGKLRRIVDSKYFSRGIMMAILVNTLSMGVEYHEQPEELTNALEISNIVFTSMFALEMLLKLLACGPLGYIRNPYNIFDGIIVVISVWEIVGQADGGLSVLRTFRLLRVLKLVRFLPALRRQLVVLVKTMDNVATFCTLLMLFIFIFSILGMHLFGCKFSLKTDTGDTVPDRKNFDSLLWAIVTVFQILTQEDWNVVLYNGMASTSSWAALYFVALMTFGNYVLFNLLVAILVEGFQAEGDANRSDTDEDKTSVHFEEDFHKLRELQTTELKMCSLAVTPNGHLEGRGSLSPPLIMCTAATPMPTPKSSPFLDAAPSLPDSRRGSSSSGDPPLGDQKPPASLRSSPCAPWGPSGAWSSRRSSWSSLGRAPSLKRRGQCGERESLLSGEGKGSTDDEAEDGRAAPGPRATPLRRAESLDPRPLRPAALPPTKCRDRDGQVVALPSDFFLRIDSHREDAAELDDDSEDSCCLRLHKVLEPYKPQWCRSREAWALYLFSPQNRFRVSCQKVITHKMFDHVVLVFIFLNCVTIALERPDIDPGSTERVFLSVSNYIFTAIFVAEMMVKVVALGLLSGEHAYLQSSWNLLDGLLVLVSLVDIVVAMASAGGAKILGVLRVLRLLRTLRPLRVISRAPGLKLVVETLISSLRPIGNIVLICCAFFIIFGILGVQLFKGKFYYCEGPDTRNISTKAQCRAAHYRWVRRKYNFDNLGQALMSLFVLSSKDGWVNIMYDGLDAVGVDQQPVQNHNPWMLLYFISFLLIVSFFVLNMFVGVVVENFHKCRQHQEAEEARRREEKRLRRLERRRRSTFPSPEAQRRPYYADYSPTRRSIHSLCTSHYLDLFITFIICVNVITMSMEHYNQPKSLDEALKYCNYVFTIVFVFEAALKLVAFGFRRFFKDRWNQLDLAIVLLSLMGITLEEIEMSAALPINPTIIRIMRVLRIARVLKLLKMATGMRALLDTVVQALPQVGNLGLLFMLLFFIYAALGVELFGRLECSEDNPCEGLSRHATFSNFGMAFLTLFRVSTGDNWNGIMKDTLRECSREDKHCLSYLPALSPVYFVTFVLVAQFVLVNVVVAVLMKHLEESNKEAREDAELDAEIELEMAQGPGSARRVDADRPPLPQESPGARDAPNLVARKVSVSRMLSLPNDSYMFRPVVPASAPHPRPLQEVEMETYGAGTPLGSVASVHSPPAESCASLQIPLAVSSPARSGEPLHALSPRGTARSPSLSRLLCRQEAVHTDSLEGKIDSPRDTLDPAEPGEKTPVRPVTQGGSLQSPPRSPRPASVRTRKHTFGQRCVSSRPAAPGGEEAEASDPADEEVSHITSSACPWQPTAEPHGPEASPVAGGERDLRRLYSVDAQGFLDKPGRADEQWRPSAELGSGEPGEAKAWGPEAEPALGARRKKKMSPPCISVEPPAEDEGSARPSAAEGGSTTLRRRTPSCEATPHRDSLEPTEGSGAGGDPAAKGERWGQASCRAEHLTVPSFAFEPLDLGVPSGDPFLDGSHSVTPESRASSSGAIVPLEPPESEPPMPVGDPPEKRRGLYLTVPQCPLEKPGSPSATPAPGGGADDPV
Sequence of G-protein coupled receptor 55 (Q9Y2T6 whole entry): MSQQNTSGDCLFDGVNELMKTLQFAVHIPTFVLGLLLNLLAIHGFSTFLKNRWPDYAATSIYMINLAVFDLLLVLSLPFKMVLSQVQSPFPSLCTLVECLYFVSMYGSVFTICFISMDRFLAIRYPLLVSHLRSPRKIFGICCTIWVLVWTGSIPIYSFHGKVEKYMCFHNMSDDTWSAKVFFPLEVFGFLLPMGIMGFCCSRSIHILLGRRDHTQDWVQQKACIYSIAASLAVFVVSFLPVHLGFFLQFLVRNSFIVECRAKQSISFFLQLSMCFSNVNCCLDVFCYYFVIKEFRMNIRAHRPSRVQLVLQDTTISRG
T4 sequence (Q92731 whole entry): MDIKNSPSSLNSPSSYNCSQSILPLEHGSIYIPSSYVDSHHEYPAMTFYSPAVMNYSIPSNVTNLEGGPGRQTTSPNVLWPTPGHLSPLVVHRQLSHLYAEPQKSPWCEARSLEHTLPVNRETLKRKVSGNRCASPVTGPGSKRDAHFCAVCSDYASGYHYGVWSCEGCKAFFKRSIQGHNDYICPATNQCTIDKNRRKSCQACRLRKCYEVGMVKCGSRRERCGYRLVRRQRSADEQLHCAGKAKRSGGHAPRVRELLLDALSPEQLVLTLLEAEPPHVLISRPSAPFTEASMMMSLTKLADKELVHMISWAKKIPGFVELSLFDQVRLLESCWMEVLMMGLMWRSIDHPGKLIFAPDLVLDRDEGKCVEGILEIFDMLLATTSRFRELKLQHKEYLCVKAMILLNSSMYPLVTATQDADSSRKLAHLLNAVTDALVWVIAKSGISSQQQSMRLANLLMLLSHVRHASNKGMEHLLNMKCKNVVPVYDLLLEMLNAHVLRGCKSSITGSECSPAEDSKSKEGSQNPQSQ
T6 sequence (P65502 whole entry): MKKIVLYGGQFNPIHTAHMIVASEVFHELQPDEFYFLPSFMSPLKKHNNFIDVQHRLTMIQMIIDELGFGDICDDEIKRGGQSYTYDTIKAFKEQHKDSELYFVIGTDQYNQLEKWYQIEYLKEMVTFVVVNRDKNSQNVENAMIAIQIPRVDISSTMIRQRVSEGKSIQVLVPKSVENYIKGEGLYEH
Sequence of Protein Wnt-3a (P27467 whole entry): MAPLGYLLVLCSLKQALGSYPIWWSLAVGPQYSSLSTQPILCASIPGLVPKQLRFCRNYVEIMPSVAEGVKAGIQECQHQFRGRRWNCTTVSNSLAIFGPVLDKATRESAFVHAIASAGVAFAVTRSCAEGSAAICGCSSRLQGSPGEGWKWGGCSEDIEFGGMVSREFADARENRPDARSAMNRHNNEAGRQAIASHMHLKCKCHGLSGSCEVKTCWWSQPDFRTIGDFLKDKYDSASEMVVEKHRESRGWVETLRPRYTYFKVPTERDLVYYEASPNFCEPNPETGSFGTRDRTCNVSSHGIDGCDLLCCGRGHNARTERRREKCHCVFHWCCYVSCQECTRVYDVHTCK

With `Cn1c(-c2ccccc2)c(/C=N/NC(=O)c2ccc(O)cc2)c2ccccc21` the IC50 [1] was > 67.5 µM (inactive) and the IC50 [2] was > 67.5 µM (inactive).
In the case of `O=C(CNC(=O)c1cccs1)N=Nc1c(O)[nH]c2ccc([N+](=O)[O-])cc12`, the IC50 [3] is reported as 14.6 µM (active) and the CC50 [4] is reported as > 50 µM (active).
For `COc1ccc(N2C(=O)NC(=O)/C(=C\c3cn(CC(=O)N4CCOCC4)c4ccccc34)C2=O)c(OC)c1`, the EC50 [5] was > 300 µM (not active), the EC50 [6] was > 300 µM (not active) and the IC50 [7] was 1.59 µM (active).
With `O=C(CN1C(=O)NC2(CCCC2)C1=O)NCC1CCCO1` (stereo unspecified) the IC50 [1] was > 67.5 µM (inactive) and the IC50 [2] was > 67.5 µM (inactive).
With `CCn1c(SCc2ccc(C)cc2)nnc1C1CCN(S(=O)(=O)c2ccc(OC)cc2)CC1` the EC50 [5] was > 300 µM (not active), the EC50 [6] was > 300 µM (not active) and the EC50 [8] was 6.41 µM (active).
For `COc1ccc(OC)c(N2C(=O)NC(=O)/C(=C/c3c(C)[nH]c4ccccc34)C2=O)c1`, the IC50 [7] was < 0.5 µM (active).
For `COc1ccccc1NC(=O)N1CCc2[nH]c3ccc(F)cc3c2C1`, the EC50 [8] was 5.47 µM (active) and the CC50 [4] was > 50 µM (active).
With `COc1ccccc1N1CCN(S(=O)(=O)c2cc(C(F)(F)F)cc(C(F)(F)F)c2)CC1` the IC50 [1] was > 67.5 µM (inactive) and the IC50 [2] was > 67.5 µM (inactive).
In the case of `CC1CCN(Cc2c(C(=O)N/N=C/c3ccccc3O)nnn2-c2nonc2N)CC1`, the IC50 [9] is reported as 4.81 µM (active), the EC50 [10] is reported as > 350 µM (not active) and the IC50 [11] is reported as 20.8 µM (inactive). For the same compound, the EC50 [12] was 29.5 µM (active) and the AC50 [13] was 0.9 µM (active).
With `COC(=O)c1[nH]c2ccccc2c1NC(=O)CN1CCCCCC1` the IC50 [14] was 2.63 µM (active) and the IC50 [15] was 3.51 µM (active).
In the case of `CN1CCN(S(=O)(=O)c2cccc(C(=O)Nc3sc4c(c3-c3nc5ccccc5[nH]3)CCCC4)c2)CC1`, the EC50 [16] is reported as 1.67 µM (active), the EC50 [17] is reported as > 60 µM (not active) and the CC50 [18] is reported as > 40 µM (active).
With `Cc1nn(Cc2ccccc2Cl)c(C)c1C(=O)Nc1nnc(C2CC2)s1` the IC50 [19] was 5.21 µM (active), the IC50 [3] was 3.75 µM (active) and the CC50 [20] was > 25 µM (active). For the same compound, the CC50 [4] was 7.49 µM (active).
With `O=C(CSc1nnc(Cc2cc(O)nc(O)n2)n1-c1ccc(F)cc1)N1CCCCC1` the IC50 [1] was > 67.6 µM (inactive) and the IC50 [2] was > 67.6 µM (inactive).
For `O=C(Nc1nc2ccc(S(=O)(=O)N3CCCC3)cc2s1)C1CCCCC1`, the IC50 [21] was > 80 µM (inactive).
With `Cc1ccc(-n2c(=O)c(C#N)cc3c(=O)n4cccc(C)c4nc32)cc1` the IC50 [22] was 25.4 µM (active), the IC50 [23] was 30.9 µM (not active) and the IC50 [24] was < 77 µM (not active).
For `Cc1[nH]n(C2=NCCS2)c(=O)c1N=Nc1cccc(C(F)(F)F)c1`, the EC50 [16] was 0.669 µM (active), the IC50 [14] was 2.2 µM (active) and the EC50 [17] was > 60 µM (not active). For the same compound, the AC50 [13] was 2.5 µM (active) and the IC50 [15] was 1.75 µM (active).
With `CC1=Nc2cc(C(=O)N3CCCC3)ccc2Sc2c(C)ccc(C)c21` the IC50 [19] was 8.21 µM (active), the IC50 [3] was 3.34 µM (active) and the CC50 [20] was 16.9 µM (active). The CC50 [4] was 7.28 µM (active).
In the case of `COc1ccc(OC)c2[nH]c(C(=O)N/N=C/c3ccccc3O)cc12`, the IC50 [9] is reported as 12.5 µM (not active), the EC50 [25] is reported as 1.96 µM (active) and the EC50 [10] is reported as > 350 µM (not active). The EC50 [12] was 12.2 µM (active), the AC50 [13] was 2.12 µM (active) and the EC50 [26] was 1.86 µM (active). The EC50 [27] was 2.37 µM (active) and the EC50 [28] was > 160 µM (inactive).
In the case of `Cc1ccc(-n2nc3c(c2NC(=O)c2cccs2)CSC3)cc1`, the IC50 [29] is reported as 6.35 µM (active), the EC50 [8] is reported as 0.558 µM (active) and the IC50 [30] is reported as 16.2 µM (active).
With `COc1ccc(CSc2nnc(NC(C)=O)s2)cc1[N+](=O)[O-]` the CC50 [18] was > 40 µM (active).
For `Brc1ccc2c(c1)C(C1=NCCN1)c1ccccc1CS2` (stereo unspecified), the IC50 [21] was > 80 µM (inactive).
In the case of `CCOCCCNc1[nH]cnc2c3ccccc3nc1-2`, the IC50 [14] is reported as 2.31 µM (active) and the IC50 [15] is reported as 2.76 µM (active).

— ChEMBL document CHEMBL1201862, “PubChem BioAssay data set” (2004)
